Test results published in patent publication US5624906A, “Oral hygiene compositions comprising heteroatom containing alkyl aldonamide compounds” (Lever Brothers Company, Division of Conopco, Inc., priority 1994, dated 1997).
Where two headings read alike, the source gives them in different places.

Experiments:
[1] = Effectiveness in reducing surface tension (surface pressure at CMC); type: physicochemical; conditions: 60 °C
Text: As mentioned before, surface tension reduction depends on the replacement of water molecules at the interface by surfactant molecules, therefore the effectiveness of a surfactant in reducing interfacial surface tension should reflect the saturated concentration of surfactant at the interface relative to that in bulk liquid phase. During this process the surface tension of water steadily decreases as bulk phase surfactant concentration increases. This will continue until the concentration reaches the critical micelle concentration (CMC), above which the surface tension remains nearly unchanged and the interface is saturated with surfactant. The surface tension at the CMC is therefore very close to the minimum interfacial tension or maximum surface pressure that the system can achieve. The surface pressure at this point, IIcmc, is a suitable measure of the effectiveness of a surfactant in reducing surface tension and is given as:
IIcmc =20+2.3nRT(Γmax) log[CMC/C20 ]
n=1 which represents the number of ions whose surface concentration changes with the change in liquid phase surfactant concentration.
CMC/C20 =is the ratio of the critical micelie concentration to the bulk phase surfactant concentration necessary to reduce the surface tension of water by 20 dyn/cm.

[2] = Effectiveness of adsorption (surface excess concentration, Gibbs equation); type: physicochemical
Text: The surface excess concentration at surface saturation (Γmax) is defined as a measure of the effectiveness of surfactant adsorption at the water/air interface and represents the maximum value to which adsorption can be obtained. Effectiveness of adsorption is related to the interfacial area occupied by the surfactant molecule. The smaller the effective cross-sectional area of a surfactant at the interface, the greater its effectiveness of adsorption. The effectiveness of adsorption is an important factor in determining surfactant properties such as detergency, foaming, wetting or emulsification. While not wishing to be bound by theory, it is believed that surfactants that absorb effectively at the interface tend have tightly packed coherent interfacial films and often provide better surfactant benefits than those with loosely packed noncoherent films. The effectiveness of adsorption of C8 /C10 oxypropyl D-gluconamide was determined using the Gibbs equation given as: […]
(∂γ/∂log[Conc])T

[3] = 25 °C; cited from earlier work
[4] = cited from earlier work
[5] = cited from earlier work; remark: listed apart in the source
[6] = Krafft point; type: physicochemical; conditions: 0.1% in water
[7] = Clarity of prototype surfactant compositions (Example 87); type: physicochemical; conditions: room temperature, 6 months
Procedure: The prototype shampoo composition is as follows:
(§1) The above formulations were prepared by admixing the above ingredients in listed order and heating the mixture to about 80° C. with rapid stirring. The mixture was then cooled to about 40° C., placed in a clear jar and stored at room temperature for 6 months.

[8] = Viscosity of sodium lauryl sulfate compositions (Example 88); type: physicochemical; conditions: for Viscosity: 22° C.
Procedure: The prototype surfactant composition is as follows:
as §1
It is well known that the viscosity of a liquid composition comprising of anionic surfactant can be modified by the addition of inorganic salts, such as sodium chloride. However, in the absence of an organic modifier, high levels of salt may be necessary to achieve the required viscosity which may lead to problems of storage at cold temperature or even salting out certain ingredients. In practice, however, the viscosity of a liquid composition is modified by the simultaneous addition of thickener and small amounts of inorganic salt (viscosity cobuilder). The combined effect is greater than either one alone. The viscosity of the above prototype surfactant composition comprising various amounts of heteroatom containing alkyl aldonamide compound is as follows: […]

[9] = Viscosity enhancement of sodium/ammonium lauryl sulfate compositions (formulation Example 86); type: physicochemical; conditions: 4.0% thickener, 2395/22
[10] = test system: zein
Text: The zein solubilization assay was developed to determine the biological effects of surfactants on the skin. The protein is normally in soluble in water, but can be brought into solution by interaction with surfactants. The extent of zein dissolved is related to the irritation potential (M. J. Schwinger, Kolloid-Z. Z. Poly., 233, 848, 1969). The greater the zein solubilization, the greater the irritation potential of that surfactant on the skin.
Thus, a 1% solution of surfactant (30 mls) was added to 1.5 g of zein and stirred at room temperature for 1 hour. Residual zein was collected and dried to constant weight. Differences between starting and residual weights were used to calculate % zein solubilized.

[11] = Surface tension at the water/air interface; type: physicochemical; conditions: 60 °C
Procedure: An important characteristic feature that surfactants have is the tendency for them to absorb at the water/air interface in an oriented manner, thereby altering the interfacial free energy of that surface. The surface free energy per unit area or surface tension (T), is a measure of this work and may be considered as the minimum amount of work required to bring sufficient surfactant molecules to the surface.
The surface tension (t) value of C8 /C10 oxypropyl D-gluconamide was determined and is set forth below: […]

[12] = Efficiency in surface tension reduction (pC20); type: physicochemical; conditions: 60 °C
Text: Since surface tension reduction depends on the replacement of water molecules at the interface by surfactant molecules, the efficiency of a surfactant in reducing interfacial tension should reflect the concentration of surfactant at the interface relative to that in bulk liquid phase. […] This is defined as the negative logarithm of the bulk phase surfactant concentration necessary to reduce the surface tension of water by 20 dyn/cm and is given as:
C(-Δγ=20) =C20 is the bulk phase surfactant concentration necessary to reduce the surface tension of water by 20 dyn/cm.
In general, pC20 values are usually close to the minimum concentration needed to saturate the interface with surfactant molecules.

[13] = Packing parameter / micellar shape; type: physicochemical
Text: A theory of miceliar structure, based upon the geometry of various micelie shapes and the space occupied by the surfactant has been disclosed by J. N. Israelachvili, D. J. Mitchell and B. W. Ninham in the J. Chem. Soc. Faraday Trans. 2, 1525, 72, (1976) which is given as the packing parameter (p).
VT=V(CH3) +(nc -1)V(CH2) and represents the volume occupied by the hydrophobic groups in the miceIlar core at a given temperature.
1c =1.50+1.26 nc Å and represents the length of the hydrophobic group in the core.
am =area per molecule or the cross-sectional area occupied by the hydrophilic group at the interface.

**Q.** For `CCCCCCCCCCCCOCCOCCOCCOCCOCCOCCOCCOCCO` [Dodecylocta(oxyethylene) Ether], which “Πcmc (surface pressure)” value ([1]; estimated by extrapolating a linear line) is on record?
**A.** 36.3 dyn/cm

**Q.** What about the “Γmax (surface excess concentration at surface saturation)” value (“Γmax” for short) ([2]; 60 °C, estimated by extrapolating a linear line) of the same compound?
**A.** 2.40 × 10^-10 mole/cm^2

**Q.** What about the pC20 [3] of the same compound?
**A.** 5.20

**Q.** And the “Πcmc (surface pressure)” value ([4]; 25 °C)?
**A.** 37.2 dyn/cm

**Q.** And the “Πcmc (surface pressure)” value ([4]; 40 °C)?
**A.** 37.3 dyn/cm

**Q.** What about the “Γmax” value ([5]; 25 °C) of the same compound?
**A.** 2.52 × 10^-10 mole/cm^2

**Q.** What about the “Γmax” value ([5]; 40 °C) of the same compound?
**A.** 2.46 × 10^-10 mole/cm^2

**Q.** Which results are given for C8 /C10 oxypropyl D-gluconamide?
**A.** Krafft Point (0.1%) [6]: 48 °C; Appearance ([7]; 3.0% in […] sodium lauryl sulfate): Clear; Appearance ([7]; 4.0% in […] sodium lauryl sulfate): Clear; Appearance ([7]; 5.0% in […] sodium lauryl sulfate): Clear; Viscosity Increase ([8]; 1.0% thickener): 13 x; Viscosity ([8]; 1.0% thickener): 200 Centipoise; Viscosity Increase ([8]; 2.0% thickener): 27 x; Viscosity ([8]; 2.0% thickener): 400 Centipoise; Viscosity Increase ([8]; 3.0% thickener): 80 x; Viscosity ([8]; 3.0% thickener): 1200 Centipoise; Viscosity Increase ([8]; 4.0% thickener): 148 x; Viscosity ([8]; 4.0% thickener): 2220 Centipoise; Viscosity Increase ([8]; 5.0% thickener): 860 x; Viscosity ([8]; 5.0% thickener): 12900 Centipoise; increase of viscosity from its normal viscosity [9]: 109 times; % Zein Solubilized [10]: 6%; Surface tension γ [11]: 29.2 dyn/cm; pC20 [12]: 4.78; CMC/C20 [1]: 5.7; Πcmc (surface pressure) [1]: 38.5 dyn/cm; slope of a plot of γ versus log[Conc] ([2]; T=333.15 K): -24.57 ergs/cm^2; 1a (length of the hydrophobic group in the core) ([13]; T=333.15 K): 17.5 Å; micelles predicted from packing parameter ([13]; aqueous media): cylindrical to lameliar micelles
